Laboratory results: patent US8877763B2, “Substituted pyridopyrimidine compounds and their use as FLT3 inhibitors” (Genosco, priority 2012, dated 2014)
Changes are numbered by the printed parent chain. Structures can show the parent of a compound that is named as a salt. One block for each compound: values may come before it.

Assays:
[1] = test system: MV4-11 cells expressing human FLT3-ITD; experiment: Cell viability assay: inhibition of FLT3-ITD-positive cells (ATPLite); type: cell-based; details: 72 hour incubation
Protocol: Compounds of the invention were tested for cell viability effect on MV4-11 cells. For cell viability assay, MV4-11 cells expressing human FLT3-ITD were obtained from the American Type Culture Collection (ATCC, Manassas, Va.). This cell line was maintained with an Roswell Park Memorial Institute (RPMI) medium (HyClone™) containing 10 bovine calf serum (BCS; Hyclone™) supplemented iron. The MV4-11 cells were seeded at 2×10^4 cells in 96-well culture plates, and serially diluted compound was then added. After a 72 hour incubation period at 37° C., cell viability was measured using the ATPLite 1 step assay (Perkin-Elmer™) that is based on the quantification of ATP from viable cells. CellTiter Aqueous assay (Promega™) was also performed in parallel as an orthogonal assay. IC50 values were calculated using nonlinear regression and defined as the concentration needed for a 50 reduction in luminescence or absorbance treated versus untreated control cells (Prism™ Software).

[2] = molecular target: T1, JAK2 (Homo sapiens, UniProt O60674); experiment: Inhibition of enzymatic JAK2 kinase activity (Lance Ulight TR-FRET); type: biochemical
T1 construct: Truncated human FLT3 wildtype, mutant D835Y, and JAK2; purchased Carna Biosciences
Protocol: (§1) Compounds of the invention were initially diluted to 10 mM in 100% DMSO (CALBIOCHEM™) for storage and made into kinase buffer solution to create a compound concentration ranging from 1 uM and 10 uM. Serial dilutions of compounds of the invention were dispensed into a 96-well plate (GREINER BIOSCIENCES™) at 6 μL each.

[3] = molecular target: T2, FLT3 mutant D835Y (Homo sapiens, UniProt P36888, D835Y); experiment: Inhibition of enzymatic FLT3 mutant D835Y kinase activity (Lance Ulight TR-FRET); type: biochemical
T2 construct: Truncated human FLT3 wildtype, mutant D835Y; purchased Carna Biosciences
T2 sequence (P36888 564-993 D835Y limits assumed): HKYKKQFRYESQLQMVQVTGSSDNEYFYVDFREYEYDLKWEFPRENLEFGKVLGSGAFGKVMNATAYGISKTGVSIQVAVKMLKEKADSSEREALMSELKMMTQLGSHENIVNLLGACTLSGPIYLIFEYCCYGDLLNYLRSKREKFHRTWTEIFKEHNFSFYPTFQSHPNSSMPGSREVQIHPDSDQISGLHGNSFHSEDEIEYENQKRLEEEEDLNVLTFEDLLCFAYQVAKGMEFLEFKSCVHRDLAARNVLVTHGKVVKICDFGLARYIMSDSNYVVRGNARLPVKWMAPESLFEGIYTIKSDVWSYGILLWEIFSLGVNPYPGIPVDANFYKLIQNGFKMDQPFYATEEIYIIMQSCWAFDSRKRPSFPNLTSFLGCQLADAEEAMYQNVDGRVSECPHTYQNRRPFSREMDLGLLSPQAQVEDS
Protocol: as §1

[4] = molecular target: T3, Truncated human FLT3 wildtype (Homo sapiens, UniProt P36888); experiment: Inhibition of enzymatic FLT3 wildtype kinase activity (Lance Ulight TR-FRET); type: biochemical
T3 construct: Truncated human FLT3 wildtype; purchased Carna Biosciences
T3 sequence (P36888 564-993 limits assumed): T2 sequence (P36888 564-993 D835Y limits assumed) with Y272D
Protocol: as §1

[5] = test system: MV4-11 cell line of FLT3-ITD; experiment: Xenograft mouse model using MV4-11 cell line; type: in vivo, Balb/C nude mice; details: for Means of Tumor Volume / Percent Tumor Regression (PTR %): 30 mg/kg every day
Protocol: Compounds of the invention were tested in xenograft mouse model using MV4-11 cell line of FLT3-ITD. All male animals of 6 weeks old Balb/C nude mice were housed in plastic cages (4˜6 mice/cage) containing corn cob and maintained in a pathogen-free facility (20˜25° C., 30˜70% humidity) with a 12 hour light:dark cycle. Tumor model was established by subcutaneous injection with MV4-11 cell suspension. When the average tumor volume reached approximately 400 mm^3 (˜5 weeks post tumor implantation), the tumor bearing-mice were assigned 2 groups (9 mice per each). The compound 238 treatment of 30 mg/kg every day was initiated and continue for 28 days. The vehicle 20% hydroxyl-β-cyclodextrin was used. Tumor volume was measured twice weekly. Where applicable, percent tumor regression (PTR) for each group will be calculated by the formula: PTR=100×(tumor volumeinitial−tumor volumefinal)/(tumor volumeinitial).

T1 sequence (O60674 826-1132 limits assumed): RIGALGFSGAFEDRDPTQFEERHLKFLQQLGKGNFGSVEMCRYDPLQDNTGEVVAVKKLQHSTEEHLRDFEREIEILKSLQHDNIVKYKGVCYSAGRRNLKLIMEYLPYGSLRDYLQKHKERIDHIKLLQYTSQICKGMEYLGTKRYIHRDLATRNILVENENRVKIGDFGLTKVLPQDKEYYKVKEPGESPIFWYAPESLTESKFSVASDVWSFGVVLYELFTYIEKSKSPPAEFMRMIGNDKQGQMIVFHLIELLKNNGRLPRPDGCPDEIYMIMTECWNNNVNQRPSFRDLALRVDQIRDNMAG

Compound: CN1CCC(Nc2nc(Nc3ccc(OC4CCCC4)cc3)c3c(=O)[nH]cc(Br)c3n2)CC1 [Compound 237, 8-bromo-4-(4-(cyclopentyloxy)phenylamino)-2-(1-methylpiperidin-4-ylamino)pyrido[4,3-d]pyrimidin-5(6H)-one hydrochloride]
IC50 ([1]; Homo sapiens, MV4-11, 72 h): 0.5 nM

Compound: CN1CCC(Nc2nc(Nc3ccc(Oc4cccc(F)c4)cc3)c3c(=O)[nH]cc(Br)c3n2)CC1.Cl [Compound 238, 8-bromo-4-(4-(3-fluorophenoxy)phenylamino)-2-(1-methylpiperidin-4-ylamino)pyrido[4,3-d]pyrimidin-5(6H)-one hydrochloride]
IC50 [4]: 1.4 nM | inhibition of kinase activity of FLT3 wildtype (in words) [4]: strong inhibition | IC50 ([1]; hydrochloride): 1.9 nM | Means of Tumor Volume ([5]; day of treatment 1): 312.8 mm^3 | Means of Tumor Volume ([5]; day of treatment 4): 79.4 mm^3 | Percent Tumor Regression (PTR %) ([5]; day of treatment 4): 74.6% | Means of Tumor Volume ([5]; day of treatment 7): 27.6 mm^3 | Percent Tumor Regression (PTR %) ([5]; day of treatment 7): 91.2% | Means of Tumor Volume ([5]; day of treatment 11): 0 mm^3 | Percent Tumor Regression (PTR %) ([5]; day of treatment 11): 100% | Means of Tumor Volume ([5]; day of treatment 14): 0 mm^3 | Percent Tumor Regression (PTR %) ([5]; day of treatment 14): 100% | Means of Tumor Volume ([5]; day of treatment 17): 0 mm^3 | Percent Tumor Regression (PTR %) ([5]; day of treatment 17): 100% | Means of Tumor Volume ([5]; day of treatment 21): 0 mm^3 | Percent Tumor Regression (PTR %) ([5]; day of treatment 21): 100% | Means of Tumor Volume ([5]; day of treatment 25): 0 mm^3 | Percent Tumor Regression (PTR %) ([5]; day of treatment 25): 100% | Means of Tumor Volume ([5]; day of treatment 28): 0 mm^3 | Percent Tumor Regression (PTR %) ([5]; day of treatment 28): 100% | tumor regression (in words) ([5]; after 11 days of compound treatment): complete tumor regression | IC50 [2]: 845 nM | IC50 [3]: 0.4 nM | inhibition of kinase activity of FLT3 mutant D835Y (in words) [3]: strong inhibition

Compound: CN1CCC(Nc2nc(Nc3ccc(Oc4ccc(F)c(F)c4)cc3)c3c(=O)[nH]cc(Br)c3n2)CC1 [Compound 241, 8-bromo-4-((4-(3,4-difluorophenoxy)phenyl)amino)-2-((1-methylpiperidin-4-yl)amino)pyrido[4,3-d]pyrimidin-5(6H)-one hydrochloride]
IC50 [4]: 1.6 nM | IC50 ([1]; Homo sapiens, MV4-11, 72 h): 0.9 nM | IC50 [2]: 1050 nM | IC50 [3]: 0.6 nM

Compound: Cc1ccc(Oc2ccc(Nc3nc(NC4CCN(C)CC4)nc4c(Br)c[nH]c(=O)c34)cc2)cc1 [Compound 225, 8-bromo-2-((1-methylpiperidin-4-yl)amino)-4-((4-(p-tolyloxy)phenyl)amino)pyrido[4,3-d]pyrimidin-5(6H)-one]
IC50 [4]: 0.3 nM | IC50 [2]: 1520 nM | IC50 [3]: 1.6 nM

Compound: CN1CCC(Nc2nc(Nc3ccc(OCC4CCCC4)cc3)c3c(=O)[nH]cc(Br)c3n2)CC1 [Compound 235, 8-bromo-4-((4-(cyclopentylmethoxy)phenyl)amino)-2-((1-methylpiperidin-4-yl)amino)pyrido[4,3-d]pyrimidin-5(6H)-one]
IC50 ([1]; Homo sapiens, MV4-11, 72 h): 1.6 nM

Compound: CN1CCC(Nc2nc(Nc3ccc(Oc4cccc(F)c4)cc3)c3c(=O)[nH]cc(Br)c3n2)CC1 [Compound 240, 8-bromo-4-((4-(3-fluorophenoxy)phenyl)amino)-2-((1-methylpiperidin-4-yl)amino) pyrido[4,3-d]pyrimidin-5(6H)-one]
IC50 [4]: 1.2 nM | IC50 [1]: 0.5 nM | IC50 [2]: 599 nM | IC50 [3]: 1.3 nM

Compound: CN1CCC(Nc2nc(Nc3ccc(OCc4ccccc4)cc3)c3c(=O)[nH]cc(Br)c3n2)CC1 [Compound 221, 4-((4-(benzyloxy)phenyl)amino)-8-bromo-2-((1-methylpiperidin-4-yl)amino)pyrido[4,3-d]pyrimidin-5(6H)-one]
IC50 [4]: 0.1 nM | IC50 ([1]; Homo sapiens, MV4-11, 72 h): 2.4 nM | IC50 [2]: 290 nM | IC50 [3]: 0.4 nM

Further lines, results first:

IC50 ([1]; Homo sapiens, MV4-11, 72 h): 1.4 nM | IC50 [2]: 173 nM | IC50 [3]: 0.3 nM
Compound: CN1CCC(Nc2nc(Nc3ccc(OC4CCCCC4)cc3)c3c(=O)[nH]cc(Br)c3n2)CC1 [Compound 233, 8-bromo-4-((4-(cyclohexyloxy)phenyl)amino)-2-((1-methylpiperidin-4-yl)amino) pyrido[4,3-d]pyrimidin-5(6H)-one hydrochloride]

IC50 [4]: 0.1 nM | IC50 ([1]; Homo sapiens, MV4-11, 72 h): 1.4 nM | IC50 [2]: 260 nM | IC50 [3]: 1.7 nM
Compound: CN1CCC(Nc2nc(Nc3cccc(Oc4ccccc4)c3)c3c(=O)[nH]cc(Br)c3n2)CC1 [Compound 246, 8-bromo-2-((1-methylpiperidin-4-yl)amino)-4-((3-phenoxyphenyl)amino)pyrido[4,3-d]pyrimidin-5(6H)-one]

IC50 [4]: 0.1 nM | IC50 [1]: 0.8 nM | IC50 [2]: 129 nM | IC50 [3]: 0.6 nM
Compound: CN1CCC(Nc2nc(Nc3ccc(OC4CCCCC4)cc3)c3c(=O)[nH]cc(Br)c3n2)CC1 [Compound 228, 8-bromo-4-((4-(cyclohexyloxy)phenyl)amino)-2-((1-methylpiperidin-4-yl)amino)pyrido[4,3-d]pyrimidin-5(6H)-one]

IC50 [2]: 281 nM
Compound: CN1CCC(Nc2nc(Nc3ccc(Oc4ccccc4)cc3)c3c(=O)[nH]cc(Br)c3n2)CC1 [Compound 226, 8-Bromo-2-(1-methylpiperidin-4-ylamino)-4-(4-phenoxyphenylamino)pyrido[4,3-d]pyrimidin-5(6H)-one hydrochloride]

IC50 [4]: 0.6 nM | IC50 [2]: 153 nM | IC50 [3]: 0.3 nM
Compound: CN1CCC(Nc2nc(Nc3ccc(OC4CCCC4)cc3)c3c(=O)[nH]cc(Br)c3n2)CC1 [Compound 223, 8-bromo-4-((4-(cyclopentyloxy)phenyl)amino)-2-((1-methylpiperidin-4-yl)amino)pyrido[4,3-d]pyrimidin-5(6H)-one]
